From BigSolDB 2.1

CCOC(=O)Cc1c(C(=O)OCC)sc(N)c1C#N
solubility (mole fraction)
Conditions	273.15 K	278.15 K	283.15 K	288.15 K	293.15 K	298.15 K	303.15 K	308.15 K	313.15 K	318.15 K
in acetone	0.0446	0.0499	0.0558	0.0628	0.071	0.0801	0.0902	0.101	0.113	0.126
in acetonitrile	0.0082	0.0102	0.0125	0.0151	0.0185	0.0225	0.0268	0.0323	0.0385	0.0455
in ethanol	0.0031	0.00399	0.00505	0.00637	0.00798	0.00998	0.0123	0.015	0.0186	0.0227
in ethyl acetate	0.0237	0.0257	0.0286	0.0318	0.0349	0.0386	0.0427	0.0473	0.0519	0.0567
in isopropanol	0.00232	0.00307	0.00396	0.00513	0.00656	0.00845	0.0107	0.0134	0.0168	0.0213
in methanol	0.00483	0.00609	0.00759	0.00947	0.0118	0.0144	0.0176	0.0214	0.0261	0.0313
in n-butanol	0.00204	0.00266	0.00343	0.00438	0.00559	0.0071	0.0091	0.0114	0.0144	0.0177
in n-propanol	0.00217	0.00286	0.0036	0.00471	0.00618	0.00763	0.00961	0.012	0.0151	0.0188
in toluene	0.000402	0.00052	0.000664	0.000858	0.00109	0.00139	0.00171	0.00215	0.00265	0.00323
